Data on three molecules can be found in patent publication US20060229208A1, “Use of acyl cyclohexandione derivatives in conjunction with ethephon for treating pomaceous fruit” (BASF AKTIENGESELLSCHAFT, priority 2003, published 2006).

Assay [1] deals with pome fruit, specifically apples and pears. In words: Applicant's experiments on floral development in the year after treatment with acylcyclohexanedione growth regulators. The format is in vivo. The source says:
Thus, D. Sugar, D. C. Elfving and E. A. Mielke report in Acta Hort. […] In the most extreme case, no floral development at all takes place in the year after the treatment.

In a further assay the test system is pear trees. The conditions noted are these: cited from earlier work.
For assay [2], the system named is 12-year-old pear trees cv. "Conference" on BA rootstock. Description: Flowering behavior in pears after treatment with prohexadione-calcium and ethephon (inflorescence count about one year after first application). The format is in vivo. As to the method:
1. Flowering Behavior in Pears after Treatment with Prohexadione-calcium and Ethephon
12-year-old pear trees cv. “Conference” on BA rootstock at two different locations were treated first with prohexadione-calcium alone and secondly with a combination of prohexadione-calcium and ethephon. To this end, 4 groups of 5 trees each, which were uniformly distributed in an orchard, were sprayed with an active-ingredient-comprising spray mixture to run-off point (approx. 1000 l/ha). Three applications at intervals of approximately one month were carried out at the first location. At the second location, prohexadione-calcium was applied four times to a part of the groups of trees and three times to another part, the application interval being in each case approximately two weeks. The combination of prohexadione-calcium and ethephon was applied twice, with in each case one application with prohexadione-calcium alone being carried out before and after the combined application. Approximately one year after the first application, the number of inflorescences of untreated trees, of those which have been treated exclusively with prohexadione-calcium and of trees which had been treated with a combination of prohexadione-calcium and ethephon were counted and compared with each other.

`CCOC(=O)C1CC(=O)C(=C(O)C2CC2)C(=O)C1` (centres unmarked) [trinexapac-ethyl]: in assay [1], the “Floral development in the year after the treatment” value was “markedly reduced floral development”.

Turning to `O=C1CC(C(=O)O)CC(=O)C1=C(O)C1CC1` (centres unmarked) [trinexapac], the “Floral development in the year after the treatment” value in assay [1] is on record as “markedly reduced floral development”.

Consider prohexadione-calcium [ProCa], for which the “Floral development in the year after the treatment” value in assay [1] is recorded as “markedly reduced floral development”. In the assay with pear trees, the Subsequent flowering entry was “reduced subsequent flowering”. In addition, the “Flowering in the subsequent year, April 2003” value in assay [2] (Location 1, ProCa alone 150 g/ha on 15th April, 14th May, 16th June 2002, total 450 g/ha, untreated 183) was 137 number of inflorescences/tree; in assay [2] (Location 2, ProCa alone four applications 120/87/87/95 g/ha (12th April, 3rd, 15th, 30th May 2002), total 389 g/ha, untreated 250), 157 number of inflorescences/tree; in assay [2] (Location 2, ProCa alone three applications 120/87/87 g/ha (12th April, 3rd, 15th May 2002), total 294 g/ha, untreated 250), 152 number of inflorescences/tree. Further, in assay [2] (pear trees, Tables 1 and 2), the “Floral development in the year following the treatment (summary in words)” value is reported as “reduced floral development”.
